The record followed here is PMC5520195 (Acta Pharmacologica Sinica, 2017).

Data set [1] deals with 4T1.2 mouse breast cancer cells. In words: MTT cytotoxicity assay. The format is cell-based. The following applies: 4T1.2 cells, 72 h.
Data set [2] can be described thus: Plasma pharmacokinetics of DOX after iv administration. In kind it is in vivo. The following applies: DOX in plasma, BALB/c mice, 5 mg DOX/kg.

Broadly, the Cmax is the peak of the concentration-time curve.

Take `COc1cccc2c1C(=O)c1c(O)c3c(c(O)c1C2=O)C[C@@](O)(C(=O)CO)C[C@@H]3O[C@H]1C[C@H](N)[C@H](O)[C@H](C)O1` [DOX, doxorubicin]: in data set [1], the “cytotoxicity (MTT)” value is “cytotoxic effect on tumor cells in a concentration-dependent manner”. Moreover, in data set [2], the “AUC0–infinity” value stood at 2930 ng·h/mL, the CL amounted to 28.8 mL/min/kg and the Cmax turned out to be 6270 ng/mL.
